Source: patent US20090318514A1, “Novel Pharmaceutical Compositions” (priority 2006, published 2009)

Tests used:
[1] = molecular target: T1, hTRβ (Homo sapiens, UniProt P10828); assay: TR competition binding assay with filter separation; conditions: competition with 125I-T3 tracer, full length hTRβ; read-out: TR-β IC50
T1 sequence (P10828 1-461): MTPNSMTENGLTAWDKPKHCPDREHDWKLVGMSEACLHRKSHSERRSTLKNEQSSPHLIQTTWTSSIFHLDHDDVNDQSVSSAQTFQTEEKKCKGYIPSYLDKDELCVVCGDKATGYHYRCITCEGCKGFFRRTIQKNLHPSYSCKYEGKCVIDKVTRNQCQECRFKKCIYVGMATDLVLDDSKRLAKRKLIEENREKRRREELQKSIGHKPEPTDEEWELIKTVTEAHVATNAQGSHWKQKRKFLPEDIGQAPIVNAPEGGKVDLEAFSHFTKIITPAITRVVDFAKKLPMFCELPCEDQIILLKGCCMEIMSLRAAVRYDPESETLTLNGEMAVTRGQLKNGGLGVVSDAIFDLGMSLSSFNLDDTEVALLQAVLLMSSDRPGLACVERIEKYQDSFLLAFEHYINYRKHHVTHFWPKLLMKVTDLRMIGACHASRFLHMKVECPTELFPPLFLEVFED
Procedure: TR Competition Binding Assay with Filter Separation
Compounds are tested for their ability to compete with the tracer ^125I-T3 for binding to full length hTRα and hTRβ. Receptor extracts and tracer are diluted in assay buffer (17 mM K2HPO4, 3 mM KH2PO4, 400 mM KCl, 1 mM MgCl2, 0.5 mM EDTA and 8.7% glycerol). ^125I-T3 is diluted to a final concentration of 0.2 nM and receptor is diluted to reach a final count in Trilux Microbeta of approximately 10000 ccpm. Compounds are typically serially diluted in DMSO from DMSO stock solutions of 10 mM. To 96 well microtiter plates are 100 μl tracer, 4 μl test compound dilution series and 100 μl receptor dilution added. The assay plates are incubated at +4° C. overnight (app. 16 h incubation). Receptor bound and free tracer are separated over a glass fiber filter (FILTERMAT B, PerkinElmer) on a Tomtec Cellharvester with 18 mM K2HPO4, 2 mM KH2PO4, 0.5 mM EDTA wash buffer. The filters are dried at 60° C. for 1 h and then merged with a scintillant wax (MELTILEX, PerkinElmer) on a Wallac Microsealer before measuring in a Trilux Microbeta. IC50s, the concentration test compound needed to decrease tracer binding by 50 percent, are generated via analysis of data in XLfit version 2.0 or later with a four parameter logistic model.

[2] = molecular target: T2, CHO/hThRβ1 (Homo sapiens, UniProt P10828); assay: Reporter cell line (TRAF) assay, agonist activity; assay type: cell-based; conditions: CHO/hThRβ1 reporter cells, alkaline phosphatase readout after 48 hours
T2 construct: The cDNAs encoding the full length human ThRα1 and ThRβ1 were cloned; expressed in transfected cells
T2 sequence (P10828 1-461): T1 sequence (P10828 1-461)
Text: Vector Constructs, Generation of Reporter Cell Lines (TRAF), and Assay Procedure.
The cDNAs encoding the full length human ThRα1 and ThRβ1 were cloned in the mammalian expression vector pMT-hGH. The pDR4-ALP reporter vector contains one copy of the direct repeat sequence AGGTCA nnnnAGGTCA, fused upstream of the core promoter sequences of the mouse mammary tumor virus long terminal repeat (MMTV), replacing the glucocorticoid response elements. The DR4-MMTV promoter fragment was then cloned in the 5′ end of the cDNA encoding human placental alkaline phosphatase (ALP), followed in the 3′-end by the polyA-signal sequence of the human growth hormone gene. Chinese hamster ovary (CHO) K1 cells (ATCC No. CCL 61) were transfected in two steps, first with the receptor expression vectors pMT-hThRα1 and pMT-THRβ1, respectively, and the drug resistance vector pSV2-Neo, and in the second step, with the reporter vector pDR4-ALP and the drug resistance vector pKSV-Hyg. Individual drug resistant clones were isolated and selected based on T3 inducibility. One stable reporter cell clone each of CHO/hThRα1 and CHO/hThRβ1 were chosen for further study in response to various thyroid hormone agonists.
CHO/hThRα1 and CHO/hThRβ1 were seeded in growth medium (Coon's/F12, 10% L-3,5,3′-triiodothyronine and L-thyroxine depleted FCS, 2 mM L-glutamine) in 96-well plates at 20×10^3 cells per well. After 24 hour incubation at 37° C. in humidified chambers, at 5% CO2, conditioned medium was replaced by induction medium (OptiMEM, 2 mM L-glutamine, 50 μm/mL gentamycin) and cells were exposed to the test compounds at serial dilutions, at final DMSO concentration of 0.5% , or to serial dilution of T3 (positive control), to assess agonist activity of test compounds.
After 48 hours incubation at 37° C. in humidified chambers at 5% CO2 the level of alkaline phosphatase expressed and secreted into the cell culture medium was analyzed by chemiluminescence on MicroBeta Trilux.
The assay procedure described above was carried out for the compounds of Examples 1 to 40, 43-44 and 47-48.

IC50 [1] | β % agonism [2] | Compound
0.14 nM | 100% | CC(C)Cc1nc2cc(Oc3c(Br)cc(CC(F)C(=O)O)cc3Br)ccc2[nH]1 (racemic) [Example 10, 3-(3,5-dibromo-4-{[2-isobutyl-1H-benzimidazol-5-yl]oxy}phenyl)-2-fluoropropanoic acid]
5.5 nM | 91% | O=C(O)CCCc1cc(Br)c(Oc2ccc3[nH]c(-c4ccc(F)cc4)nc3c2)c(Br)c1 [Example 5, 4-(3,5-dibromo-4-{[2-(4-fluorophenyl)-1H-benzimidazol-5-yl]oxy}phenyl)butanoic acid]
2.4 nM | 99% | Cc1cccc(-c2nc3cc(Oc4c(Br)cc(CCC(=O)O)cc4Br)ccc3[nH]2)c1 [Example 11, 3-(3,5-dibromo-4-{[2-(3-methylphenyl)-1H-benzimidazol-5-yl]oxy}phenyl)propanoic acid]
1.7 nM | 70% | CC(C)(C)Cc1nc2cc(Oc3c(Br)cc(OCC(=O)O)cc3Br)ccc2[nH]1 [Example 15, {3,5-dibromo-4-{[2-(2,2-dimethylpropyl)-1H-benzimidazol-5-yl)oxy]phenoxy}acetic acid]
7.5 nM | 70% | CCCc1nc2cc(Oc3c(Br)cc(OCC(=O)O)cc3Br)ccc2[nH]1 [Example 17]
0.49 nM | 75% | Cc1nc(-c2nc3cc(Oc4c(Br)cc(CC(F)C(=O)O)cc4Br)ccc3[nH]2)c(C)o1 (stereo not drawn) [Example 32, 3-{3,5-Dibromo-4-[2-(2,5-dimethyl-oxazol4-yl)-1H-benzoimidazol-5-yloxy]-phenyl}-2-fluoropropionic acid]
